Converted amounts (≈) assume the structure as drawn. “And” between values parts separate entries of the source, which are not always exact repeats. Equal entries are not always repeated. Where two headings read alike, the source gives them in different places. Square brackets hold non-standard residues; d marks the D form. Peptide text beside a SMILES is read from it. * marks the point of attachment. dPhe(4-Cl) = N[C@H](Cc1ccc(Cl)cc1)C(=O)O; d2Nal = N[C@H](Cc1ccc2ccccc2c1)C(=O)O; Lys(iPr) = CC(C)NCCCC[C@H](N)C(=O)O; d3Pal = N[C@H](Cc1cccnc1)C(=O)O; Nicotinoyl = O=C(c1cccnc1)*
How the values were obtained:
[1] = Solubilisation studies (visual appearance and RP-HPLC solubility after equilibration overnight at 25°C); format: physicochemical
Method: (§1) RP-HPLC gradient elution, C-18 (e.g. Vydac 218 TP54, 250 x 4.6 mm) column. UV detection at 215 nm, injection volume 15 µl mobile phase A: pH 4.5 phosphate buffer (0.1M), mobile phase B: acetonitrile, flow rate = 1.0 ml/min, runtime = 23 min. External standard solution concentrations of 100 µg/ml were injected during analysis. The gradient was: 77% A, 23% B to 52% A, 48% B […].
Solubilisation studies were carried out to study the effect of: • pH (solutions were acidified with either acetic acid or hydrochloric acid) • hydrotropic agents (nicotinamide, sodium saccharin, sodium salicylate, sodium benzoate, histidine hydrochloride, thiamine hydrochloride, phenylalanine).
Saline used in these studies corresponds to 0.9% sodium chloride solution.
Following the visual analysis, a number of solutions were selected for further quantitative determination of the solubility by filtration (0.45 µm filters) and appropriate dilution using the RP-HPLC method described above.

[2] = Stability of nicotinamide/antide formulations (chemical compatibility); format: physicochemical; conditions: pH 5
Method: as §1
Four formulations of antide and nicotinamide at different concentration ratios and adjusted to pH 5 were prepared and tested over 3 months at +40°C, +25°C and +4°C.
Chromatographic traces of antide were identical to those of the standard, with the addition of the early eluting nicotinamide peak which appeared at a retention tune of 3.2 minutes.

solubility thermodynamic ([1]; 0.9% NaCl solution (saline), saline or isotonic, 0.9% NaCl solution): 25 µg/mL (≈ 15.7 µM)
Solubility ([1]; 1% acetic acid in saline, 5 mg/ml antide added, pH 3.12, not quantified, read-out: drug solubility): < 5000 µg/mL
solubility thermodynamic ([1]; WFI (water for injection), pH 4.4, water, WFI, nominal amount added 10 mg/ml, pH 4.40): 8130 µg/mL (≈ 5110 µM)
Solubility ([1]; WFI (water for injection), water, WFI, nominal amount added 1 mg/ml, pH 5.00, read-out: Solubility): ≥ 1000 µg/mL
Solubility ([1]; WFI, nominal amount added 10 mg/ml, pH 4.40): 8100 µg/mL (≈ 5090 µM)
solubility thermodynamic ([1]; phosphate buffered saline, aqueous buffer): 16 µg/mL (≈ 10.1 µM)
Solubility ([1]; saline + 15% nicotinamide, nominal amount added 5 mg/ml, pH 5.79 (Table 9)): 3300 µg/mL and 3320 µg/mL
Solubility ([1]; saline + 15% sodium benzoate, nominal amount added 5 mg/ml, pH 6.69): 72 µg/mL
Solubility ([1]; saline + 15% sodium salicylate, nominal amount added 5 mg/ml, pH 5.81): 210 µg/mL
Solubility ([1]; saline + 15% thiamine hydrochloride, nominal amount added 5 mg/ml, pH 3.30): 3000 µg/mL and 3010 µg/mL
Solubility ([1]; saline + histidine hydrochloride (5%), nominal amount added 5 mg/ml, pH 4.17): 76 µg/mL
Solubility ([1]; saline + nicotinamide 10%, nominal amount added 5 mg/ml, pH 5.68): 1400 µg/mL
Solubility ([1]; saline + nicotinamide 15%, nominal amount added 5 mg/ml, pH 5.76 (Table 10)): 3230 µg/mL
Solubility ([1]; saline + nicotinamide 20%, nominal amount added 10 mg/ml, pH 5.64): 8500 µg/mL and 8490 µg/mL
Solubility ([1]; saline + phenylalanine (1.7%), nominal amount added 5 mg/ml, pH 4.59): 66 µg/mL
solubility thermodynamic ([1]; saline acidified with acetic acid, pH 3.01, saline or isotonic, nominal amount added 10 mg/ml, pH 3.01): 2200 µg/mL (≈ 1380 µM)
Solubility ([1]; saline acidified with acetic acid, nominal amount added 10 mg/ml, pH 3.01): 2230 µg/mL (≈ 1400 µM)
solubility thermodynamic ([1]; saline, pH 5.04, saline or isotonic, nominal amount added 1 mg/ml, natural pH 5.04): 25 µg/mL (≈ 15.7 µM)
Stability of nicotinamide/antide formulations ([2]; antide 1 mg/ml, nicotinamide 5%, +4°C, 4W): 0.9
Stability of nicotinamide/antide formulations ([2]; antide 1 mg/ml, nicotinamide 5%, +4°C, 12W): 1.0
Stability of nicotinamide/antide formulations ([2]; antide 1 mg/ml, nicotinamide 5%, +25°C, 1W): 0.9
Stability of nicotinamide/antide formulations ([2]; antide 1 mg/ml, nicotinamide 5%, +25°C, 4W): 0.9
Stability of nicotinamide/antide formulations ([2]; antide 1 mg/ml, nicotinamide 5%, +25°C, 12W): 1.0
Stability of nicotinamide/antide formulations ([2]; antide 1 mg/ml, nicotinamide 5%, +40°C, 1W): 1.0
Stability of nicotinamide/antide formulations ([2]; antide 1 mg/ml, nicotinamide 5%, +40°C, 4W): 0.9
Stability of nicotinamide/antide formulations ([2]; antide 1 mg/ml, nicotinamide 5%, +40°C, 12W): 1.0
Stability of nicotinamide/antide formulations ([2]; antide 1 mg/ml, nicotinamide 5%, T=0): 1.0
Stability of nicotinamide/antide formulations ([2]; antide 1 mg/ml, nicotinamide 25%, +4°C, 4W): 1.0
Stability of nicotinamide/antide formulations ([2]; antide 1 mg/ml, nicotinamide 25%, +4°C, 12W): 1.1
Stability of nicotinamide/antide formulations ([2]; antide 1 mg/ml, nicotinamide 25%, +25°C, 1W): 1.0
Stability of nicotinamide/antide formulations ([2]; antide 1 mg/ml, nicotinamide 25%, +25°C, 4W): 1.0
Stability of nicotinamide/antide formulations ([2]; antide 1 mg/ml, nicotinamide 25%, +25°C, 12W): 1.1
Stability of nicotinamide/antide formulations ([2]; antide 1 mg/ml, nicotinamide 25%, +40°C, 1W): 1.0
Stability of nicotinamide/antide formulations ([2]; antide 1 mg/ml, nicotinamide 25%, +40°C, 4W): 1.0
Stability of nicotinamide/antide formulations ([2]; antide 1 mg/ml, nicotinamide 25%, +40°C, 12W): 1.1
Stability of nicotinamide/antide formulations ([2]; antide 1 mg/ml, nicotinamide 25%, T=0): 1.0
Stability of nicotinamide/antide formulations ([2]; antide 10 mg/ml, nicotinamide 5%, +4°C, 1W): 10.3
Stability of nicotinamide/antide formulations ([2]; antide 10 mg/ml, nicotinamide 5%, +4°C, 4W): 10.0
Stability of nicotinamide/antide formulations ([2]; antide 10 mg/ml, nicotinamide 5%, +4°C, 12W): 10.5
Stability of nicotinamide/antide formulations ([2]; antide 10 mg/ml, nicotinamide 5%, +25°C, 4W): gel
Stability of nicotinamide/antide formulations ([2]; antide 10 mg/ml, nicotinamide 5%, +25°C, 12W): gel
Stability of nicotinamide/antide formulations ([2]; antide 10 mg/ml, nicotinamide 5%, +40°C, 4W): gel
Stability of nicotinamide/antide formulations ([2]; antide 10 mg/ml, nicotinamide 5%, +40°C, 12W): gel
Stability of nicotinamide/antide formulations ([2]; antide 10 mg/ml, nicotinamide 5%, T=0): 9.7
Stability of nicotinamide/antide formulations ([2]; antide 10 mg/ml, nicotinamide 25%, +4°C, 4W): 10.1
Stability of nicotinamide/antide formulations ([2]; antide 10 mg/ml, nicotinamide 25%, +25°C, 1W): 9.8
Stability of nicotinamide/antide formulations ([2]; antide 10 mg/ml, nicotinamide 25%, +25°C, 4W): 9.5
Stability of nicotinamide/antide formulations ([2]; antide 10 mg/ml, nicotinamide 25%, +25°C, 12W): 11.1
Stability of nicotinamide/antide formulations ([2]; antide 10 mg/ml, nicotinamide 25%, +40°C, 1W): 10.7
Stability of nicotinamide/antide formulations ([2]; antide 10 mg/ml, nicotinamide 25%, +40°C, 4W): 9.4
Stability of nicotinamide/antide formulations ([2]; antide 10 mg/ml, nicotinamide 25%, +40°C, 12W): 10.2
Stability of nicotinamide/antide formulations ([2]; antide 10 mg/ml, nicotinamide 25%, T=0): 9.8
SMILES: CC(=O)N[C@H](Cc1ccc2ccccc2c1)C(=O)N[C@H](Cc1ccc(Cl)cc1)C(=O)N[C@H](Cc1cccnc1)C(=O)N[C@@H](CO)C(=O)N[C@@H](CCCCNC(=O)c1cccnc1)C(=O)N[C@H](CCCCNC(=O)c1cccnc1)C(=O)N[C@@H](CC(C)C)C(=O)N[C@@H](CCCCNC(C)C)C(=O)N1CCC[C@H]1C(=O)N[C@H](C)C(N)=O [antide] (Ac-[d2Nal][dPhe(4-Cl)][d3Pal]SK(Nicotinoyl)[dK](Nicotinoyl)L[Lys(iPr)]P[dA]-NH2)
Stability of nicotinamide/antide formulations ([2]; antide 10 mg/ml, nicotinamide 5%, +25°C, 1W): increased viscosity with precipitate formation and gel
Stability of nicotinamide/antide formulations ([2]; antide 10 mg/ml, nicotinamide 5%, +40°C, 1W): increased viscosity with precipitate formation and gel

Source: EP0880968A1, “Pharmaceutical compositions of peptides having low solubility in physiological medium” (Applied Research Systems ARS Holding N.V., priority 1997, dated 1998)
